Assay results published in PMC10374545, “A small molecule inhibitor of PTP1B and PTPN2 enhances T cell anti-tumor immunity” (Nature Communications, 2023).
Values joined by “and” are separate entries in the source; they are usually repeats but may differ in a detail not shown here. Identical values can stand only once.

Columns and labels:
[1] = target: T1, CD45 (Homo sapiens, UniProt P08575); test: PTP selectivity, DiFMUP assay; type: biochemical; details: DiFMUP at Km
T1 construct: CD45, residues 620-1236; made in house; host or cells: E. coli BL21(DE3)
Description: (§1) E. coli BL21(DE3) (Novagen) was used as an expression host and the induction of protein expression was carried out in LB media with 1 mM IPTG at 18 °C overnight. Cell pellets were stored at −80 °C for subsequent protein purification.
(§2) Protein purification of PTPs for enzymatic assays was conducted at 4 °C. Frozen cell pellets were lysed by sonication in 40 ml cold lysis buffer (50 mM Tris-HCl, pH 8.0, 150 mM NaCl, 5 mM imidazole, and 1 mM PMSF) per litre cell pellet. Cell lysates were clarified by centrifugation using a Beckman JA-18 rotor for 15 min at 5308 x g. The supernatant was incubated with HisPur Ni-NTA resin (Thermo Scientific) for 2 h and then packed onto a column and washed with 50 resin volume of buffer A (50 mM Tris-HCl, pH 8.0, 500 mM NaCl, 5 mM imidazole). The His-tagged proteins were eluted with Buffer B (50 mM Tris-HCl, pH=8.0, 500 mM NaCl, 300 mM imidazole,). Pooled His-protein-containing fractions were concentrated, loaded onto a HiLoad 26/600 Superdex 75 column (GE Healthcare Biosciences) and eluted with storage buffer (50 mM Tris-HCl, pH 8.0, 150 mM NaCl, 1 mM DTT, 10% glycerol). […] The protein was aliquoted and stored at −80 °C.
(§3) The PTP kinetic assay was modified from previous reported protocols[73],[74]. PTP activity was assayed using 6,8-Difluoro-4-Methylumbelliferyl Phosphate (DiFMUP, Invitrogen, cat# D6567,) as a substrate in 3,3-Dimethylglutaric acid (DMG) buffer (50 mM DMG, pH 7.0, 1 mM EDTA, 18 mM NaCl, 0.01% Triton X-100) at 25 °C. To determine the IC50 values, the assays were performed in 96-well plates (Corning Costar 3915). […] The final reaction volume is 200 µl. The reaction was allowed to proceed for 10 min and then quenched by the addition of 40 µl of a 160 µM solution of bpV(Phen) (Sigma-Aldrich, cat# SML0889). The fluorescence signal was measured using a CLARIOstar Plus Microplate Spectrophotometer (BMG Labtech) using excitation and emission wavelengths of 340 nm and 450 nm, respectively. Data were fitted using Prism GraphPad 9.2.0.
(§4) To determine the mode of inhibition, the reactions were initiated by the addition of enzyme (final concentration for PTP1B and PTPN2 was 0.05 nM) to the reaction mixtures (0.2 ml) containing various concentrations of DiFMUP with different concentrations of the inhibitor. The reaction was allowed to proceed for 10 min and then quenched by the addition of 40 µl of a 160 µM solution of bpV(Phen) (Sigma-Aldrich, cat# SML0889). The fluorescence signal was measured using a CLARIOstar Plus Microplate Spectrophotometer (BMG Labtech) using excitation and emission wavelength of 340 nm and 450 nm, respectively. Data were fitted using Prism GraphPad 9.2.0. For selectivity studies, the inhibition assay for other PTPs were performed under the same conditions as used for PTP1B and PTPN2 except with different DiFMUP concentration corresponding to the Km of the PTP studied.

[2] = target: T2, CDC14A (Homo sapiens, UniProt Q9UNH5); test: PTP selectivity, DiFMUP assay; type: biochemical; details: DiFMUP at Km
T2 construct: CDC14A, residues 1-413; made in house; host or cells: E. coli BL21(DE3)
Description: as §1, §2, §3, §4

[3] = target: T3, LMPTP (Homo sapiens, UniProt P24666); test: PTP selectivity, DiFMUP assay; type: biochemical; details: DiFMUP at Km
T3 construct: LMWPTP, residues 1-158; made in house; host or cells: E. coli BL21(DE3)
Description: as §1, §2, §3, §4

[4] = target: T4, Laforin (Homo sapiens, UniProt O95278); test: PTP selectivity, DiFMUP assay; type: biochemical; details: DiFMUP at Km
T4 construct: made in house; host or cells: E. coli BL21(DE3)
Description: as §1, §2, §3, §4

[5] = target: T5, PTPα (Homo sapiens, UniProt P18433); test: PTP selectivity, DiFMUP assay; type: biochemical; details: DiFMUP at Km
T5 construct: PTPα, residues 173-793; made in house; host or cells: E. coli BL21(DE3)
Description: as §1, §2, §3, §4

[6] = target: T6, SHP-2 (Homo sapiens, UniProt Q06124); test: PTP selectivity, DiFMUP assay; type: biochemical; details: DiFMUP at Km
T6 construct: SHP-2, residues 224-528; made in house; host or cells: E. coli BL21(DE3)
Description: as §1, §2, §3, §4

[7] = target: T7, VHZ (Homo sapiens, UniProt Q9BVJ7); test: PTP selectivity, DiFMUP assay; type: biochemical; details: DiFMUP at Km
T7 construct: VHZ, residues 1-150; made in house; host or cells: E. coli BL21(DE3)
Description: as §1, §2, §3, §4

[8] = test system: OT-I CD8+ T cells; test: T cell proliferation (CTV dilution); type: cell-based, mouse; design: CTV, single replicates / CTV, mean of differences (D - C): unit not given here; details: for CTV, single replicates: N4 0.5 nM, 1 μM, 3 days, Fig. 2C raw data
Description: For analyzing cellular proliferation in vitro, single-cell suspensions from lymph nodes of wild type (OT-I;Ptpn2^fl/fl) or PTPN2-deficient (OT-I;Lck-Cre;Ptpn2^fl/fl) mice were stained with 2 μM CellTrace^TM Violet (CTV; Molecular Probes, Thermo Fisher Scientific) in PBS supplemented with 0.1% (v/v) FBS for 20 min at 37 °C. […] On day 3, OT-I cells were harvested and CTV dilution was monitored by flow cytometry. For cell number quantification, known numbers of Flow-Count Fluorospheres (Beckman Coulter) were added to samples before analysis.

[9] = test system: AT3 mammary tumors; test: AT3 mammary tumor growth in C57BL/6 mice; type: in vivo, mouse
Description: Male or female mice were injected subcutaneously with 5 × 10^5 MC38 tumor cells resuspended in 100 μl D-PBS into the flank. Alternatively, female mice were injected orthotopically with 5 × 10^5 AT3 or AT3-OVA or PTPN2-deleted AT3 or AT3-OVA tumor cells resuspended in 20 μl D-PBS into the fourth mammary fat pad. Tumor sizes were measured in two dimensions (mm^2) using electronic callipers two to three times per week as soon as tumors were palpable (20–25 mm^2).

T4 sequence (O95278 whole entry): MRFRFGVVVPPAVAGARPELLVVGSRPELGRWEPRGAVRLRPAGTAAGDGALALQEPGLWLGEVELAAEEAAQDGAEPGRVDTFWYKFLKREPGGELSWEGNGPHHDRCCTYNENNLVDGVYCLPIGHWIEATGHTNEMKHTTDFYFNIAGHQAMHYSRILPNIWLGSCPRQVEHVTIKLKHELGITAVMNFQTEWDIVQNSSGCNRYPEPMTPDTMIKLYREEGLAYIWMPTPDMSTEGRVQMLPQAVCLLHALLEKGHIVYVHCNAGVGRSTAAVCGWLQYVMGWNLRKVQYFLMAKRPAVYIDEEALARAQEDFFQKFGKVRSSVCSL
T2 sequence (Q9UNH5 1-413): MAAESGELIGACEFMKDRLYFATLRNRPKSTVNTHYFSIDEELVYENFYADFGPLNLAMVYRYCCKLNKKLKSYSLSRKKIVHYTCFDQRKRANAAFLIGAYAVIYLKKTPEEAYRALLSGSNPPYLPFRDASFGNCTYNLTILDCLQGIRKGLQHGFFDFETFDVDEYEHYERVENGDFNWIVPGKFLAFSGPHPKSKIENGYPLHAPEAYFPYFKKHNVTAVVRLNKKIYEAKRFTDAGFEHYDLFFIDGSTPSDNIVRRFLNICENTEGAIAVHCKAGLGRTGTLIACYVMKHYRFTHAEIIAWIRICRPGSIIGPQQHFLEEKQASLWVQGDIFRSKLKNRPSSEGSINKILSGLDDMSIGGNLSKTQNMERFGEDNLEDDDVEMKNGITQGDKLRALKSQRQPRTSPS
T3 sequence (P24666 whole entry, the tested form may be a part): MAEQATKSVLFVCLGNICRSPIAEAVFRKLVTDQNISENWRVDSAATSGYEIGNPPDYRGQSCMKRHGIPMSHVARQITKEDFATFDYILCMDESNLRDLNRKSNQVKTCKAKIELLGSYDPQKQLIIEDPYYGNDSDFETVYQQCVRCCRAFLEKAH
T6 sequence (Q06124 224-528): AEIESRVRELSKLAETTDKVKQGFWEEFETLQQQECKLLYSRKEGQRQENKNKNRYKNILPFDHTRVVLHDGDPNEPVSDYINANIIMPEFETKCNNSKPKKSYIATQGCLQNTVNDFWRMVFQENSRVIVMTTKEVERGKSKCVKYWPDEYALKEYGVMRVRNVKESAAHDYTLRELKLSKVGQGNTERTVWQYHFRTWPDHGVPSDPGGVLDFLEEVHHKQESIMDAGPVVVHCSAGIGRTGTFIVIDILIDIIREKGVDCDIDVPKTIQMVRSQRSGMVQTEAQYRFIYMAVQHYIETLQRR
T7 sequence (Q9BVJ7 whole entry, the tested form may be a part): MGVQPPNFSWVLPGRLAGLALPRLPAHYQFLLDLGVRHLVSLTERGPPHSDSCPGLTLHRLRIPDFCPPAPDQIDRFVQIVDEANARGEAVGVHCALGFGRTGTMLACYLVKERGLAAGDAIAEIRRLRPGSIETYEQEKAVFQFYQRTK
T1 sequence (P08575 620-1236): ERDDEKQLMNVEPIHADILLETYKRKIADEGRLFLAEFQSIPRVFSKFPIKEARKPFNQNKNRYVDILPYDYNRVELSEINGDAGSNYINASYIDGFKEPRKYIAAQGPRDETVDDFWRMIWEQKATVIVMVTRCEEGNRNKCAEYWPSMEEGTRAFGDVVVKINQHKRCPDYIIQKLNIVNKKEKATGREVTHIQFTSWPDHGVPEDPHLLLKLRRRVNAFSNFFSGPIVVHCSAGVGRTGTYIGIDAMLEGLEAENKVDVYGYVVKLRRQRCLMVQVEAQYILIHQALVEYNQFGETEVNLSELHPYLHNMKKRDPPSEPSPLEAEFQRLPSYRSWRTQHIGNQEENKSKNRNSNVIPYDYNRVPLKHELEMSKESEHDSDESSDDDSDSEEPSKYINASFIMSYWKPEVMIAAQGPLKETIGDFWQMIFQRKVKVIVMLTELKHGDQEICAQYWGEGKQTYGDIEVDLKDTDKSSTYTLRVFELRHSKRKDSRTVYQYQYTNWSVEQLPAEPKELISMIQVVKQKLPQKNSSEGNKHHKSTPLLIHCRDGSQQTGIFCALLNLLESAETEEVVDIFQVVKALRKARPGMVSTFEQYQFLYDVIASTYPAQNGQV

`CC(C)(O)CCOc1ccc2cc(O)c(N3CC(=O)NS3(=O)=O)c(F)c2c1` [Compound 182, 5-(1-Fluoro-3-hydroxy-7-(3-hydroxy-3-methylbutoxy)naphthalen-2-yl)−1,2,5-thiadiazolidin-3-one 1,1-dioxide] was tested, and the IC50 [1] was over 20 µM, the IC50 [2] was 6.3 ± 0.8 µM and the IC50 [3] was over 20 µM. It also gave an IC50 [4] of over 20 µM, an IC50 [5] of over 20 µM and an IC50 [6] of 19.2 ± 1.7 µM. For the same molecule, the IC50 [7] was over 20 µM, the “OT-I CD8+ T cell proliferation/expansion (CTV dilution)” value [8] was “marked increases” and the “CTV, mean of differences (D - C)” value ([8]; 2KI vs. 2K, day 3, 4 pairs, Fig. 2C) was 23.93. The “CTV, single replicates” value ([8]; Lck-Cre;Ptpn2fl/fl (2K) OT-I cells, listed as 2KI) was 82.8 and 89.7 and 89.6 and 74.7, the “CTV, mean of differences (B - A)” value ([8]; WTI vs. WT, day 3, 4 pairs, Fig. 2C) was 27.74 and the “CTV, single replicates” value ([8]; wild type OT-I cells, listed as WTI) was 38.7 and 58 and 84.3 and 62.7. The “Tumour weights AT-3, individual mice” value ([9]; 10 mg, Figure 4D, listed as CMP-182, in mg (unit assumed)) was 433 and 615 and 255 and 610 and 642 and 344, the “Tumour growth AT-3, individual mice” value ([9]; 10 mg, day 10 post injection, listed as CMP-182, in mm2) was 18.92 and 38.28 and 21.93 and 30.78 and 35.75 and 25.97 and the “Tumour growth AT-3, individual mice” value ([9]; 10 mg, day 13 post injection, listed as CMP-182, in mm2) was 24.01 and 35.1 and 25.44 and 30.24 and 37.12 and 27.5. The “Tumour growth AT-3, individual mice” value ([9]; 10 mg, day 16 post injection, listed as CMP-182, in mm2) was 28.5 and 42.21 and 23.76 and 29.58 and 41.04 and 36.4, the “Tumour growth AT-3, individual mice” value ([9]; 10 mg, day 19 post injection, listed as CMP-182, in mm2) was 40.71 and 52.8 and 61.32 and 46.5 and 44.4 and 42.9 and the “Tumour growth AT-3, individual mice” value ([9]; 10 mg, day 22 post injection, listed as CMP-182, in mm2) was 40.95 and 59.13 and 71.25 and 50.16 and 54.4 and 49.4. For the same molecule, the “Tumour growth AT-3, individual mice” value ([9]; 10 mg, day 25 post injection, listed as CMP-182, in mm2) was 70.31 and 63.7 and 89.04 and 67.08 and 73.15 and 57.67, the “Tumour growth AT-3, individual mice” value ([9]; 10 mg, day 27 post injection, listed as CMP-182, in mm2) was 77.08 and 74.4 and 63 and 65.86 and 98.28 and 55.44 and the “growth of orthotopic AT3 mammary tumors” value ([9]; 10 mg/kg i.v. every 2 days) was “repressed the growth”. For the same molecule, the “Tumour weights, median” value ([9]; AT-3 tumours, CMP-182 10 mg, n=6, Figure 4D) was 521.5, n=6, the “Tumour size, predicted column mean over all time points” value ([9]; AT-3 tumours, CMP-182 10 mg, n=6, Figure 4D, in mm2) was 48.13 and the “Tumour size, Mean 2” value ([9]; AT-3 tumours, CMP-182 10 mg, n=6, time point 10, Figure 4D, in mm2) was 28.61. For the same molecule, the “Tumour size, Mean 2” value ([9]; AT-3 tumours, CMP-182 10 mg, n=6, time point 13, Figure 4D, in mm2) was 29.9, the “Tumour size, Mean 2” value ([9]; AT-3 tumours, CMP-182 10 mg, n=6, time point 16, Figure 4D, in mm2) was 33.58 and the “Tumour size, Mean 2” value ([9]; AT-3 tumours, CMP-182 10 mg, n=6, time point 19, Figure 4D, in mm2) was 48.11. The “Tumour size, Mean 2” value ([9]; AT-3 tumours, CMP-182 10 mg, n=6, time point 22, Figure 4D, in mm2) was 54.22, the “Tumour size, Mean 2” value ([9]; AT-3 tumours, CMP-182 10 mg, n=6, time point 25, Figure 4D, in mm2) was 70.16 and the “Tumour size, Mean 2” value ([9]; AT-3 tumours, CMP-182 10 mg, n=6, time point 27, Figure 4D, in mm2) was 72.34.
